This passage reports IC50 results from patent US7491819B1 (priority 2004, dated 2009).

For this experiment, the target named is T1, HIV-integrase (Human immunodeficiency virus type 1 group M subtype B, UniProt P12497).
T1 construct: Recombinant integrase (0.26 ng) was incubated with the beads
Description: HIV-Integrase Inhibition Activity (SPA bead strand-transfer assay). The format is biochemical. Conditions: Table 1; read-out: Activity (HIV-integrase inhibition, IC50 class). An outline of the steps: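 Strand-transfer read-out: CPM from P33-labelled target DNA (0.1 fmol) joined to bead-bound biotin substrate DNA (5 pmole), with EDTA stop at 10 mM final. Integrase (0.26 ng) prebound to streptavidin SPA beads 90 min, 37° C, and washed before adding inhibitor.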
The IC50 is the point on the concentration scale where inhibition reaches its midpoint. Take `CC1(C)OCCn2c1nc(C(=O)NCc1ccccc1-c1cccc(C(=O)N3CCCC3)c1)c(O)c2=O` [Example 172, Pyrimido[2,1-c][1,4]oxazine-2-carboxamide, 4,6,7,9-tetrahydro-3-hydroxy-9,9-dimethyl-4-oxo-N-[[3′-(1-pyrrolidinylcarbonyl)[1,1′-biphenyl]-2-yl]methyl]-]: the half-maximal inhibitory concentration (IC50) lay within 2 to 100 nM.

For the compound `CC1(C)OCCn2c1nc(C(=O)NCc1ccccc1-c1ccc(C(N)=O)cc1)c(O)c2=O` [Example 173, Pyrimido[2,1-c][1,4]oxazine-2-carboxamide, N-[[4′-(aminocarbonyl)[1,1′-biphenyl]-2-yl]methyl]-4,6,7,9-tetrahydro-3-hydroxy-9,9-dimethyl-4-oxo-], the IC50 is 2 to 100 nM.

Consider `CC1(C)OCCn2c1nc(C(=O)NCc1ccccc1-c1cccc(C(N)=O)c1)c(O)c2=O` [Example 174, Pyrimido[2,1-c][1,4]oxazine-2-carboxamide, N-[[3′-(aminocarbonyl)[1,1′-biphenyl]-2-yl]methyl]-4,6,7,9-tetrahydro-3-hydroxy-9,9-dimethyl-4-oxo-], for which the 50% inhibitory concentration (IC50) lay in the range of 2 to 100 nM.

As for `CNC(=O)c1ccc(-c2ccccc2CNC(=O)c2nc3n(c(=O)c2O)CCOC3(C)C)cc1` [Example 175, Pyrimido[2,1-c][1,4]oxazine-2-carboxamide, 4,6,7,9-tetrahydro-3-hydroxy-9,9-dimethyl-N-[[4′-[(methylamino)carbonyl][1,1′-biphenyl]-2-yl]methyl]-4-oxo-], the half-inhibitory concentration (IC50) was in the range of 2 to 100 nM.

For the compound `CC1(C)OCCn2c1nc(C(=O)NCc1ccccc1-c1cccc(NS(C)(=O)=O)c1)c(O)c2=O` [Example 176, Pyrimido[2,1-c][1,4]oxazine-2-carboxamide, 4,6,7,9-tetrahydro-3-hydroxy-9,9-dimethyl-N-[[3′-[(methylsulfonyl)amino][1,1′-biphenyl]-2-yl]methyl]-4-oxo-], the IC50 was 2 to 100 nM.

Turning to `CC1(C)OCCn2c1nc(C(=O)NCc1ccccc1-c1ccc3[nH]ccc3c1)c(O)c2=O` [Example 177, Pyrimido[2,1-c][1,4]oxazine-2-carboxamide, 4,6,7,9-tetrahydro-3-hydroxy-N-[[2-(1H-indol-5-yl)phenyl]methyl]-9,9-dimethyl-4-oxo-], the half-maximal inhibitory concentration (IC50) was 2 to 100 nM.

For `CN(C)Cc1ccc(-c2ccccc2CNC(=O)c2nc3n(c(=O)c2O)CCOC3(C)C)cc1` [Example 178, Pyrimido[2,1-c][1,4]oxazine-2-carboxamide, N-[[4′-[(dimethylamino)methyl][1,1′-biphenyl]-2-yl]methyl]-4,6,7,9-tetrahydro-3-hydroxy-9,9-dimethyl-4-oxo-], the half-inhibitory concentration (IC50) fell in the range of 2 to 100 nM.

Turning to `CC1(C)OCCn2c1nc(C(=O)NCc1ccccc1-c1ccsc1)c(O)c2=O` [Example 179, Pyrimido[2,1-c][1,4]oxazine-2-carboxamide, 4,6,7,9-tetrahydro-3-hydroxy-9,9-dimethyl-4-oxo-N-[[2-(3-thienyl)phenyl]methyl]-], the IC50 lay in the range of 2 to 100 nM.

On to `Cc1noc(C)c1-c1ccccc1CNC(=O)c1nc2n(c(=O)c1O)CCOC2(C)C` [Example 180, Pyrimido[2,1-c][1,4]oxazine-2-carboxamide, N-[[2-(3,5-dimethyl-4-isoxazolyl)phenyl]methyl]-4,6,7,9-tetrahydro-3-hydroxy-9,9-dimethyl-4-oxo-], for which the concentration for half-maximal inhibition (IC50) lay in the range of 2 to 100 nM.

Consider `COCc1ccc(-c2ccccc2CNC(=O)c2nc3n(c(=O)c2O)CCOC3(C)C)cc1` [Example 181, Pyrimido[2,1-c][1,4]oxazine-2-carboxamide, 4,6,7,9-tetrahydro-3-hydroxy-N-[[4′-(methoxymethyl)[1,1′-biphenyl]-2-yl]methyl]-9,9-dimethyl-4-oxo-], for which the IC50 fell in the range of 2 to 100 nM.

On to `CC1(C)OCCn2c1nc(C(=O)NCc1ccccc1-c1ccc3c(c1)OCO3)c(O)c2=O` [Example 187, Pyrimido[2,1-c][1,4]oxazine-2-carboxamide, N-[[2-(1,3-benzodioxol-5-yl)phenyl]methyl]-4,6,7,9-tetrahydro-3-hydroxy-9,9-dimethyl-4-oxo-], for which the IC50 fell in the range of 2 to 100 nM.

`CC1(C)OCCn2c1nc(C(=O)NCc1ccccc1-c1ccc(F)c(F)c1)c(O)c2=O` [Example 188, Pyrimido[2,1-c][1,4]oxazine-2-carboxamide, N-[(3′,4′-difluoro[1,1′-biphenyl]-2-yl)methyl]-4,6,7,9-tetrahydro-3-hydroxy-9,9-dimethyl-4-oxo-]: the 50% inhibitory concentration (IC50) lay within 2 to 100 nM.

As to `CC1(C)OCCn2c1nc(C(=O)NCc1ccccc1-c1ccc(CC#N)cc1)c(O)c2=O` [Example 189, Pyrimido[2,1-c][1,4]oxazine-2-carboxamide, N-[[4′-(cyanomethyl)[1,1′-biphenyl]-2-yl]methyl]-4,6,7,9-tetrahydro-3-hydroxy-9,9-dimethyl-4-oxo-], the IC50 is 2 to 100 nM.

As to `CC1(C)OCCn2c1nc(C(=O)NCc1ccccc1-c1ccncc1)c(O)c2=O` [Example 190, Pyrimido[2,1-c][1,4]oxazine-2-carboxamide, 4,6,7,9-tetrahydro-3-hydroxy-9,9-dimethyl-4-oxo-N-[[2-(4-pyridinyl)phenyl]methyl]-], the IC50 fell in the range of 2 to 100 nM.

Consider `Cc1ccncc1-c1ccccc1CNC(=O)c1nc2n(c(=O)c1O)CCOC2(C)C` [Example 191, Pyrimido[2,1-c][1,4]oxazine-2-carboxamide, 4,6,7,9-tetrahydro-3-hydroxy-9,9-dimethyl-N-[[2-(4-methyl-3-pyridinyl)phenyl]methyl]-4-oxo-], for which the IC50 is 2 to 100 nM.

For `Cc1cc(-c2ccccc2CNC(=O)c2nc3n(c(=O)c2O)CCOC3(C)C)cnc1F` [Example 192, Pyrimido[2,1-c][1,4]oxazine-2-carboxamide, N-[[2-(6-fluoro-5-methyl-3-pyridinyl)phenyl]methyl]-4,6,7,9-tetrahydro-3-hydroxy-9,9-dimethyl-4-oxo-], the IC50 is 2 to 100 nM.

For `COc1ncc(-c2ccccc2CNC(=O)c2nc3n(c(=O)c2O)CCOC3(C)C)cc1Cl` [Example 193, Pyrimido[2,1-c][1,4]oxazine-2-carboxamide, N-[[2-(5-chloro-6-methoxy-3-pyridinyl)phenyl]methyl]-4,6,7,9-tetrahydro-3-hydroxy-9,9-dimethyl-4-oxo-], the half-inhibitory concentration (IC50) was 2 to 100 nM.

Regarding `CC1(C)OCCn2c1nc(C(=O)NCc1ccccc1-c1cnc3ccccc3c1)c(O)c2=O` [Example 194, Pyrimido[2,1-c][1,4]oxazine-2-carboxamide, 4,6,7,9-tetrahydro-3-hydroxy-9,9-dimethyl-4-oxo-N-[[2-(3-quinolinyl)phenyl]methyl]-], the half-inhibitory concentration (IC50) lay within 2 to 100 nM.

Take `CN(C)CCNC(=O)c1cccc(-c2ccccc2CNC(=O)c2nc3n(c(=O)c2O)CCOC3(C)C)c1` [Example 195, Pyrimido[2,1-c][1,4]oxazine-2-carboxamide, N-[[3′-[[[2-(dimethylamino)ethyl]amino]carbonyl][1,1′-bzphenyl]-2-yl]methyl]-4,6,7,9-tetrahydro-3-hydroxy-9,9-dimethyl-4-oxo-]: the half-maximal inhibitory concentration (IC50) fell in the range of 2 to 100 nM.

Turning to `CN1CCN(C(=O)c2ccc(-c3ccccc3CNC(=O)c3nc4n(c(=O)c3O)CCOC4(C)C)cc2)CC1` [Example 196, Pyrimido[2,1-c][1,4]oxazine-2-carboxamide, 4,6,7,9-tetrahydro-3-hydroxy-9,9-dimethyl-N-[[4′-[(4-methyl-1-piperazinyl)carbonyl][1,1′-biphenyl]-2-yl]methyl]-4-oxo-], the IC50 lay within 2 to 100 nM.

With `CC1(C)OCCn2c1nc(C(=O)NCc1ccccc1-c1cccc3ncccc13)c(O)c2=O` [Example 197, Pyrimido[2,1-c][1,4]oxazine-2-carboxamide, 4,6,7,9-tetrahydro-3-hydroxy-9,9-dimethyl-4-oxo-N-[[2-(5-quinolinyl)phenyl]methyl]-], the IC50 fell in the range of 2 to 100 nM.

Regarding `CC1(C)OCCn2c1nc(C(=O)NCc1ccccc1-c1ccoc1)c(O)c2=O` [Example 198, Pyrimido[2,1-c][1,4]oxazine-2-carboxamide, N-[[2-(3-furanyl)phenyl]methyl]-4,6,7,9-tetrahydro-3-hydroxy-9,9-dimethyl-4-oxo-], the concentration for half-maximal inhibition (IC50) is 2 to 100 nM.

With `CCOc1ccc(-c2ccccc2CNC(=O)c2nc3n(c(=O)c2O)CCOC3(C)C)cn1` [Example 199, Pyrimido[2,1-c][1,4]oxazine-2-carboxamide, N-[[2-(6-ethoxy-3-pyridinyl)phenyl]methyl]-4,6,7,9-tetrahydro-3-hydroxy-9,9-dimethyl-4-oxo-], the half-inhibitory concentration (IC50) is 2 to 100 nM.

For `CC1(C)OCCn2c1nc(C(=O)NCc1ccccc1C1=CCCC1)c(O)c2=O` [Example 200, Pyrimido[2,1-c][1,4]oxazine-2-carboxamide, N-[[2-(1-cyclopenten-1-yl)phenyl]methyl]-4,6,7,9-tetrahydro-3-hydroxy-9,9-dimethyl-4-oxo-], the concentration for half-maximal inhibition (IC50) fell in the range of 2 to 100 nM.

Consider `CC1(C)OCCn2c1nc(C(=O)NCc1cc(Br)c(F)cc1Br)c(O)c2=O` [Example 201, Pyrimido[2,1-c][1,4]oxazine-2-carboxamide, N-[(4-fluoro-2,5-dibromophenyl)methyl]-4,6,7,9-tetrahydro-3-hydroxy-9,9-dimethyl-4-oxo], for which the 50% inhibitory concentration (IC50) lay in the range of 2 to 100 nM.

For `CC1(C)OCCCn2c1nc(C(=O)NCc1ccc(F)cc1S(C)(=O)=O)c(O)c2=O` [Example 202, 6H-Pyrimido[2,1-c][1,4]oxazepine-2-carboxamide, N-[[4-fluoro-2-(methylsulfonyl)phenyl]methyl]-4,7,8,10-tetrahydro-3-hydroxy-10,10-dimethyl-4-oxo-], the IC50 lay in the range of 2 to 100 nM.

For `CCC1(CC)OCCn2c1nc(C(=O)NCc1ccc(F)cc1S(C)(=O)=O)c(O)c2=O` [Example 203, Pyrimido[2,1-c][1,4]oxazine-2-carboxamide, 9,9-diethyl-N-[[4-fluoro-2-(methylsulfonyl)phenyl]methyl]-4,6,7,9-tetrahydro-3-hydroxy-4-oxo-], the IC50 was 2 to 100 nM.

Consider `CN(C)S(=O)(=O)c1cc(F)ccc1CNC(=O)c1nc2n(c(=O)c1O)CCCOC2(C)C` [Example 204, 6H-Pyrimido[2,1-c][1,4]oxazepine-2-carboxamide, N-[[2-[(dimethylamino)sulfonyl]-4-fluorophenyl]methyl]-4,7,8,10-tetrahydro-3-hydroxy-10,10-dimethyl-4-oxo-], for which the IC50 was 2 to 100 nM.
